Literature values in patent publication US7935348B2, “Combination therapy for the treatment of Alzheimer's disease” (Affiris Forschungs-und Entwicklungs GmbH, priority 2004, dated 2011).
Entries after “also recorded” stand apart in the source; their conditions may differ.

Tests used:
Aβ = conditions: for Aβ amount in the brain: peripheral treatment
Sequence of Aβ (P05067 672-711 limits assumed): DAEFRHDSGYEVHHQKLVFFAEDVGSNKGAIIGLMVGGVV

Substance | Aβ amount in the brain (Aβ) | AD-type neuropathologies (PDAPP transgenic mouse; immunization of young animals, before onset (6 weeks)) | AD-like neuropathologies (PDAPP transgenic mouse; treatment of older animals (11 months)) | Aβ content in the plasma (Aβ; peripheral administration)
GM1 | reduction of the Aβ amount in the brain |  |  | 
aggregated Aβ42: aggregated 42-amino acid form of amyloid-β peptide used as a "normal", not mimotope-based vaccine |  | prevented the development of plaque formation, neuritic dystrophy and astrogliosis | markedly reduced AD-like neuropathologies | 
gelsolin | reduction of the Aβ amount in the brain |  |  | not reduced; also recorded: increased Aβ content in the plasma
